Assay results: patent US8889683B2, “Substituted quinoxalines as inhibitors of fatty acid binding protein” (Merck Sharp & Dohme Corp., priority 2010, dated 2014)

The compounds below were run against FABP4 (Homo sapiens, UniProt P15090) (assay: TdF-based ligand binding affinity (FABP inhibitory activity assay)). Conditions: TdF-based ligand binding affinity constant.
Excerpt: Theoretical basis for TdF-based ligand binding affinity constant
The derivation of TdF-based ligand binding affinity constant (Kd) followed closely those previously formulated by Brandts and Lin, Biochemistry 29 (1990) 6927-6940. In brief, the binding constant of the ligand at the Tm is expressed as below: […]
where T0 is the midpoint of unfolding for unliganded protein and Tm is the midpoint of unfolding in presence of ligand. [LTm] is free ligand at Tm. The ΔHu and ΔCpu are the enthalpy of unfolding and heat capacity change of unfolding for the protein respectively. The ΔCPu is proportional to the size of protein and is an approximate quantity in the above equation (empirically, ΔCpu=(MW of protein/115)*14 cal/mol*K). Following algorithm derived by Mayhood et al, (Analytical Biochemistry 345 (2005) 187-197), the T0 and ΔHu can be determined separately from nonlinear regression fitting the temperature dependent protein alone curve to the following equation: […]
The nonlinear regression fitting in general readily reaches convergence by properly constraining the initial values for the fitting parameters (e.g. the initial “guess” for the ΔHu was constrained to 120 kcal/mol; initial Yn and mr, were set to 1 and zero to best represent the melting curve along the low temperature region; negative slope of −0.5 was initially chosen for mu; initial Tm was also constrained to 50° C.).
(see Brandts et al and Mayhood et al, shown above) where ΔHL (T) is the van't Hoff enthalpy of ligand binding at temperature T and ΔCpL is the heat capacity upon ligand binding. For simplicity, the ΔCpL and ΔHL (T) were set to zero and −7 kcal/mol respectively. (The ΔCpL accounts for minimal portion of total protein-ligand binding energetics and is therefore set to zero (For example, see Hossein Naghibi et al, Proc. Natl. Acad. Sci. 92, 5597-5599 (1995), where ΔCpL was estimated to ˜2% of ΔHL at 25° C. obtained from calorimetric study of binding RNase A and 2′-CMP)).

Chain of FABP4 (P15090 whole entry): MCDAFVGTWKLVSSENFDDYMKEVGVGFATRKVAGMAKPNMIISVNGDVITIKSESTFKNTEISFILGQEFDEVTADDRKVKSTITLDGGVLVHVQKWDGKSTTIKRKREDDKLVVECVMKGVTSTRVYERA

| Compound | Kd |
| --- | --- |
| O=C(c1nc2ccccc2nc1O)N1CCCC1Cc1ccc(F)cc1 (stereo not drawn) [Compound 1-158] | 2000 nM |
| O=C(c1nc2cccc(Cl)c2nc1O)N1CCCC1Cc1cccc(F)c1 (stereo not drawn) [Compound 1-161] | 22 nM |
| O=C(c1nc2cccc(Cl)c2nc1O)N1CCCC1Cc1ccc(Cl)c(Cl)c1 (stereo not drawn) [Compound 1-162] | 4 nM |
| O=C(c1nc2ccc(C(F)(F)F)cc2nc1O)N1CCCC1Cc1cccc(F)c1 (stereo not drawn) [Compound 1-163] | 2 nM |
| O=C(c1nc2ccc(C(F)(F)F)cc2nc1O)N1CCCC1Cc1ccc(Cl)c(Cl)c1 (stereo not drawn) [Compound 1-164] | 548 nM |
| O=C(c1nc2cc(Cl)c(Cl)cc2nc1O)N1CCCC1CC1CCCCC1 (stereo not drawn) [Compound 1-165] | 244 nM |
| Nc1nc2ccccc2nc1C(=O)N1CCCC1Cc1cccc(Cl)c1 (stereo not drawn) [Compound 5-2, (3-aminoquinoxalin-2-yl)[2-(3-chlorobenzyl)pyrrolidin-1-yl]methanone] | 10000 nM |
| O=C(c1nc2ccccc2nc1O)N1CCCC[C@@H]1Cc1cccc(Cl)c1 [Compound 7-7, (R)-(2-(3-chlorobenzyl)piperidin-1-yl)(3-hydroxyquinoxalin-2-yl)methanone] | 8100 nM |
| O=C(c1nc2ccccc2nc1O)N1CCCC[C@H]1Cc1cccc(Cl)c1 [Compound 7-8, (S)-(2-(3-chlorobenzyl)piperidin-1-yl)(3-hydroxyquinoxalin-2-yl)methanone] | 1200 nM |
| O=C(c1nc2ccccc2nc1O)N1CCC[C@H]1Cc1cc(Cl)cc(Cl)c1 [Compound 8-6, (S)-(2-(3,5-dichlorobenzyl)pyrrolidin-1-yl)(3-hydroxyquinoxalin-2-yl)methanone] | 250 nM |
| O=C(c1nc2ccccc2nc1O)N1CCC[C@H]1Cc1cccc(Cl)c1 [Compound 8-8, (S)-(2-(3-chlorobenzyl)pyrrolidin-1-yl)(3-hydroxyquinoxalin-2-yl)methanone] | 300 nM |
| O=C(c1nc2ccccc2nc1O)N1CCC[C@@H]1Cc1cccc(Cl)c1 [Compound 8-9, (R)-(2-(3-chlorobenzyl)pyrrolidin-1-yl)(3-hydroxyquinoxalin-2-yl)methanone] | 5000 nM |
| O=C(c1nc2cc(Cl)c(Cl)cc2nc1O)N1CCC[C@H]1Cc1cc(Cl)cc(Cl)c1 [Compound 8-11] | 4 nM |
| O=C(c1nc2cc(F)c(F)cc2nc1O)N1CCC[C@H]1Cc1cc(Cl)cc(Cl)c1 [Compound 8-12] | 1.3 nM |

Each compound was assayed against FABP5 (Homo sapiens, UniProt Q01469) (assay: FABP5 TdCD binding affinity). Conditions: not given.
Chain of FABP5 (Q01469 whole entry): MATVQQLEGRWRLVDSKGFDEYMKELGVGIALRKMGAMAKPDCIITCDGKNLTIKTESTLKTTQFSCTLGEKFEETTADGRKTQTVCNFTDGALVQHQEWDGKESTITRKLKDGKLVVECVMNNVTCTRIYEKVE

| Compound | Kd |
| --- | --- |
| O=C(c1nc2ccccc2nc1O)N1CCC[C@H]1Cc1cccc(Cl)c1 [Compound 8-8, (S)-(2-(3-chlorobenzyl)pyrrolidin-1-yl)(3-hydroxyquinoxalin-2-yl)methanone] | 500 nM |
